Test results as given in patent US6399629B1, “Efflux pump inhibitors” (priority 1998, dated 2002).
Where a name gives a salt, the structure may show the parent alone.

Test system: Pseudomonas aeruginosa PAM1001
Assay: microbe, parasite or virus in culture
Assay type: cell-based
Conditions: for inhibition at 2.5 µg/mL / inhibition at 5 µg/mL / inhibition at 10 µg/mL / inhibition at 20 µg/mL / inhibition at 40 µg/mL: Pseudomonas aeruginosa, PAM1001, read-out: Inhibition (%) of growth of P. aeruginosa PAM1001; for Inhibition (%) of growth of P. aeruginosa PAM1001: Levofloxacin 0.25 μg/mL
Description: For compounds labeled with the prefix ‘D’, potentiation is measured by inhibition of growth of Pseudomonas aeruginosa PAM1001 at varying concentrations of efflux pump inhibitors (EPIs) in the presence of levofloxacin (0.25 microg/mL). Bacteria are grown in Mueller Hinton Broth (MHB, Difco) with an initial inoculum of 1×10^6 CFU/mL. Kinetics of bacterial growth is monitored, during 18 h of incubation at 37° C., by measurement of the culture absorbance at 650 nm using a 96-well plate spectrophotometer (SpectraMax, Molecular Devices). The inhibitory effect of EPIs is expressed as a percentage of growth inhibition compared to a control bacterial culture grown in the presence of 0.25 microg/mL levofloxacin but without EPIs.

[1] = Concentration of Compound 2.5 μg/mL
[2] = Concentration of Compound 5 μg/mL
[3] = Concentration of Compound 10 μg/mL
[4] = Concentration of Compound 20 μg/mL
[5] = Concentration of Compound 40 μg/mL

SMILES	inhibition at 2.5 µg/mL	inhibition at 5 µg/mL	inhibition at 10 µg/mL	inhibition at 20 µg/mL	inhibition at 40 µg/mL	Inhibition (%) of growth of P. aeruginosa PAM1001 [1]	Inhibition (%) of growth of P. aeruginosa PAM1001 [2]	Inhibition (%) of growth of P. aeruginosa PAM1001 [3]	Inhibition (%) of growth of P. aeruginosa PAM1001 [4]	Inhibition (%) of growth of P. aeruginosa PAM1001 [5]
NCCC[C@@H](N)C(=O)N1C[C@@H](NC(=O)CCCc2ccccc2)C[C@H]1C(=O)Nc1ccc2c(c1)CCC2 [Compound D124, D-Ornithylcis-4-(4-Phenylbutanoyl)amino-L-Proline 5-Indanylamide Dihydrochloride]	19%	100%	100%	100%	100%	–	–	–	–	–
CC(C)(C)c1ccc(NC(=O)[C@@H]2C[C@@H](NC(=O)CN)CN2)cc1 [Compound D313, trans-4-Glycylamino-L-Proline 4-tert-Butylphenyl-amide Dihydrochloride]	17%	17%	96%	99%	99%	–	–	–	–	–
NCC(=O)N[C@H]1CN[C@H](C(=O)NCC(=O)Nc2ccc(Cc3ccccc3)cc2)C1 [Compound D210, trans-4-Glycylamino-L-Prolylglycine 4-Benzylphenyl-amide Dihydrochloride]	14%	16%	12%	99%	100%	–	–	–	–	–
NC[C@H]1CN[C@H](C(=O)N2C[C@H](NC(=O)[C@H](O)CCc3ccccc3)C[C@H]2C(=O)Nc2cnc3ccccc3c2)C1 (mixture of isomers) [Compound D109, trans-4-Aminomethyl-L-Prolyl-trans-4-((R)-2-Hydroxy-4-Phenylbutyrylamino)-L-Proline 3-Quinolylamide Trihydrochloride]	17%	21%	98%	100%	100%	–	–	–	–	–
Cc1cc(C)cc(NC(=O)[C@@H](CCc2ccccc2)NC(=O)[C@@H]2C[C@@H](NC(=O)CN)CN2)c1 [Compound D205, trans-4-Glycylamino-L-Prolyl-D-Homophenylalanine 3,5-Dimethylphenylamide Dihydrochloride]	16%	13%	100%	100%	100%	–	–	–	–	–
N[C@@H]1CCN[C@H](C(=O)N2C[C@H](NC(=O)[C@H](O)CCc3ccccc3)C[C@H]2C(=O)Nc2cnc3ccccc3c2)C1 (mixture of isomers) [Compound D113, cis-4-Amino-L-Pipecolinoyl-trans-4-((R)-2-Hydroxy-4-Phenylbutyrylamino)-L-Proline 3-Quinolylamide Trihydrochloride]	20%	32%	15%	15%	100%	–	–	–	–	–
NC[C@H]1CN[C@H](C(=O)Nc2ccc(Oc3ccccc3)cc2)C1 [Compound D331, trans-4-Aminomethyl-L-Proline 4-Phenoxyphenyl-amide Dihydrochloride]	17%	9%	-10%	100%	100%	–	–	–	–	–
NCC(=O)N[C@H]1CN[C@H](C(=O)Nc2ccc(OCc3ccccc3)cc2)C1 [Compound D317, trans-4-Glycylamino-L-Proline 4-Benzyloxyphenyl-amide Dihydrochloride]	20%	18%	-1%	99%	99%	–	–	–	–	–
NCC(=O)N[C@H]1CN[C@H](C(=O)Nc2ccc(CSc3ccccc3)cc2)C1 [Compound D319, trans-4-Glycylamino-L-Proline 4-(Phenylthiomethyl)-phenylamide Dihydrochloride]	19%	18%	99%	100%	100%	–	–	–	–	–
Cc1c(Cl)cccc1N1CCN(C(=O)[C@@H]2C[C@@H](CN)CN2)CC1 [Compound D407, 1-(trans-4-Aminomethyl-L-Prolyl)-4-(3-Chloro-2-methylphenyl)piperazine Dihydrochloride]	100%	100%	99%	99%	98%	–	–	–	–	–
NCC(=O)N[C@H]1CN[C@H](C(=O)Nc2cccc(OCc3ccccc3)c2)C1 [Compound D318, trans-4-Glycylamino-L-Proline 3-Benzyloxyphenyl-amide Dihydrochloride]	17%	16%	19%	99%	99%	–	–	–	–	–
NCC(=O)N[C@H]1CN[C@H](C(=O)N2CCN(c3cccc(Cl)c3)CC2)C1 [Compound D401, 1-(trans-4-Glycylamino-L-Prolyl)-4-(3-Chlorophenyl)-piperazine Dihydrochloride]	21%	19%	15%	4%	96%	–	–	–	–	–
NCC(=O)N[C@H]1CN[C@H](C(=O)N2CCC(Oc3cc(Cl)cc(Cl)c3)CC2)C1 [Compound D414, 1-(trans-4-Glycylamino-L-Prolyl)-4-(3,5-dichlorophenoxy)piperidine Dihydrochloride]	19%	98%	100%	100%	100%	–	–	–	–	–
Cl.Cl.Cl.NC[C@H](O)C(=O)N[C@H]1CN[C@H](C(=O)N2C[C@H](NC(=O)[C@H](O)CCc3ccccc3)C[C@H]2C(=O)Nc2cnc3ccccc3c2)C1 (relative stereo) [Compound D108, trans-4-((S)-3-Amino-2-Hydroxypropionylamino)-L-Prolyl-trans-4-((R)-2-Hydroxy-4-Phenylbutyrylamino)-L-Proline 3-Quinolylamide Trihydrochlonde]	–	–	–	–	–	23%	22%	22%	100%	101%
NCC(=O)N[C@@H]1CN[C@@H](C(=O)N2C[C@H](NC(=O)[C@H](O)CCc3ccccc3)C[C@H]2C(=O)Nc2cnc3ccccc3c2)C1 (mixture of isomers) [Compound D105, trans-4-Glycylamino-D-Prolyl-trans-4-((R)-2-Hydroxy-4-Phenylbutyrylamino)-L-proline 3-Quinolylamide Trihydrochloride]	19%	18%	50%	99%	101%	–	–	–	–	–
Cl.Cl.Cl.NCC(=O)N[C@H]1CN[C@H](C(=O)Nc2cnc3ccc(Cc4ccccc4)cc3c2)C1 (relative stereo) [Compound D327, trans-4-Glycylamino-L-Proline 3-(6-Benzyl)quinolyl-amide Trihydrochloride]	–	–	–	–	–	20%	19%	99%	100%	100%
Cl.Cl.NCC(=O)NC1CNC(C(=O)Nc2cccc(NC(=O)CCc3ccccc3)c2)C1 [Compound D701, 1-(N-trans-4-Glycylamino-L-Prolylamino)-3-(4-Phenylpropanoylamino)benzene Dihydrochloride]	–	–	–	–	–	17%	10%	96%	100%	100%
NCC(=O)N[C@H]1CN[C@H](C(=O)N[C@H](CCc2ccccc2)C(=O)Nc2cnc3ccccc3c2)C1 [Compound D201, trans-4-Glycylamino-L-Prolyl-D-Homophenylalanine 3-Quinolylamide Trihydrochloride]	17%	9%	99%	100%	100%	–	–	–	–	–
NCC(=O)N[C@H]1CN[C@H](C(=O)N2C[C@H](NC(=O)[C@H](O)CCc3ccccc3)C[C@H]2C(=O)Nc2cnc3ccccc3c2)C1 (mixture of isomers) [Compound D103, trans-4-Glycylamino-L-Prolyl-trans-4-((R)-2-Hydroxy-4-Phenylbutyrylamino)-L-Proline 3-Quinolylamide Trihydrochloride]	17%	6%	99%	100%	100%	–	–	–	–	–
NCCC[C@@H](N)C(=O)N1C[C@H](NC(=O)CCCc2ccccc2)C[C@H]1C(=O)Nc1ccc2c(c1)CCC2 [Compound D121, D-Ornithyl-trans-4-(4-Phenylbutanoyl)amino-L-Proline 5-Indanylamide]	15%	99%	100%	100%	100%	–	–	–	–	–
CNCC(=O)N1C[C@H](N)C[C@H]1C(=O)N1C[C@H](NC(=O)[C@H](O)CCc2ccccc2)C[C@H]1C(=O)Nc1cnc2ccccc2c1 (mixture of isomers) [Compound D111, 1-(N-Methylglycyl)-trans-4-Amino-L-Prolyl-trans-4-((R)-2-Hydroxy-4-Phenylbutyrylamino)-L-Proline 3-Quinolylamide Trihydrochloride]	20%	20%	19%	27%	100%	–	–	–	–	–
